Data from ChEMBL document CHEMBL1201862, “PubChem BioAssay data set” (2004).
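Step 1: Grow cells in 96-well plates. Step 2: Expose to compound for 48 hours at 5 concentrations. Step 3: Interpolate endpoints linearly; if unreached, use highest concentration. Here, GI50 denotes the concentration required for 50% inhibition of growth.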 Calls of active or inactive are those of the source. Rule as the data show it: active = GI50 up to about 1.1 µM and inactive = higher.

Experiments:
Assay in all cases: DTP human tumour cell line panel, 48 h
[1] = system: NCI/ADR-RES
[2] = system: A549
[3] = system: OVCAR-3
[4] = system: UACC-62
[5] = system: NCI-H460
[6] = system: U-251
[7] = system: SK-MEL-5
[8] = system: OVCAR-8
[9] = system: NCI-H226
[10] = system: EKVX
[11] = system: 786-0
[12] = system: IGROV-1
[13] = system: NCI-H522
[14] = system: DU-145
[15] = system: BT-549
[16] = system: COLO 205
[17] = system: CCRF-CEM
[18] = system: M14
[19] = system: SF-295
[20] = system: Malme-3M
[21] = system: HCC 2998
[22] = system: SNB-19
[23] = system: SNB-75
[24] = system: MDA-N
[25] = system: SN12C
[26] = system: SK-MEL-28
[27] = system: OVCAR-4
[28] = system: PC-3
[29] = system: MDA-MB-231
[30] = system: KM12
[31] = system: HCT-15
[32] = system: MOLT-4
[33] = system: HOP-92
[34] = system: NCI-H23
[35] = system: CAKI-1
[36] = system: T47D
[37] = system: HOP-62
[38] = system: MDA-MB-435
[39] = system: LOX IMVI
[40] = system: SF-268
[41] = system: A498
[42] = system: MCF7
[43] = system: OVCAR-5
[44] = system: UACC-257
[45] = system: HL-60
[46] = system: TK-10
[47] = system: UO-31
[48] = system: ACHN
[49] = system: SW-620
[50] = system: Hs-578T
[51] = system: HT-29
[52] = system: SK-MEL-2
[53] = system: HCT-116
[54] = system: SF-539
[55] = system: SK-OV-3
[56] = system: RPMI-8226
[57] = system: K562
[58] = system: RXF 393

Measured: GI50

O=C(CC(=O)N1N=C(N2CCCCC2)CC1c1ccccc1)Nc1ccc(Cl)cc1 (stereo unspecified)
> 100 µM: [31]
inactive: [1] > 100 µM | [2] > 100 µM | [3] > 100 µM | [4] > 100 µM | [5] > 100 µM | [6] > 100 µM | [7] > 100 µM | [8] > 100 µM | [9] > 100 µM | [10] > 100 µM | [11] > 100 µM | [12] > 100 µM | [13] > 100 µM | [14] > 100 µM | [15] > 100 µM | [16] > 100 µM | [17] > 100 µM | [18] > 100 µM | [19] > 100 µM | [20] > 100 µM | [21] > 100 µM | [22] > 100 µM | [23] > 100 µM | [24] > 100 µM | [25] > 100 µM | [26] > 100 µM | [27] > 100 µM | [28] > 100 µM | [29] > 100 µM | [30] > 100 µM | [32] > 100 µM | [33] > 100 µM | [34] > 100 µM | [35] > 100 µM | [36] > 100 µM | [37] > 100 µM | [38] > 100 µM | [39] > 100 µM | [40] > 100 µM | [41] > 100 µM | [42] > 100 µM | [43] > 100 µM | [44] > 100 µM | [45] > 100 µM | [46] > 100 µM | [47] > 100 µM | [48] > 100 µM | [49] > 100 µM | [50] > 100 µM | [51] > 100 µM | [52] > 100 µM | [53] > 100 µM

O=S1(=O)OCCOS(=O)(=O)C1C1c2ccccc2-c2ccccc21
35.4 µM: [31]
inactive: [54] 22.8 µM | [1] 25.7 µM | [2] 40.8 µM | [3] 47 µM | [4] 21.7 µM | [5] 11.4 µM | [6] 20.7 µM | [7] 28.7 µM | [8] 50.8 µM | [55] 40.3 µM | [9] 26 µM | [10] 42.8 µM | [11] 20 µM | [12] 23.5 µM | [13] 20.7 µM | [14] 37.3 µM | [15] 48.8 µM | [16] 70.5 µM | [17] 16.4 µM | [18] 38.3 µM | [19] 29 µM | [20] 56.2 µM | [21] 29 µM | [22] 38.5 µM | [23] 2.41 µM | [24] 36.7 µM | [56] 28.6 µM | [25] 48.6 µM | [26] 67.6 µM | [27] 23 µM | [28] 90.4 µM | [57] 31.3 µM | [29] > 100 µM | [58] 50.9 µM | [30] 41.5 µM | [32] 15.6 µM | [33] > 100 µM | [34] 28.7 µM | [35] 29.7 µM | [36] 93.8 µM | [37] 29.3 µM | [38] 33.6 µM | [39] 14.8 µM | [40] 28.9 µM | [41] > 100 µM | [42] 39 µM | [43] 72.3 µM | [44] 36.4 µM | [45] 15.5 µM | [46] > 100 µM | [47] 28.7 µM | [48] 27.2 µM | [49] 26.9 µM | [50] 44.9 µM | [51] 34 µM | [52] 70.3 µM | [53] 28.6 µM
